Results: ChEMBL document CHEMBL1123679, “5-Quinone derivatives of 2'-deoxyuridine 5'-phosphate: inhibition and inactivation of thymidylate synthase, antitumor cell, and antiviral studies” (J Med Chem, 1987)
≈ marks a conversion by molar mass, not a printed value.

Key:
Raji [1] = experiment: Inhibition of human B-cell lymphoblast Raji cell proliferation; type: functional; settings: read-out: ID50 (the source's name)
L1210 = experiment: Ability to inhibit the proliferation or tumor cell growth by 50% of the murine leukemia L1210 cells was determined; type: functional; settings: Mus musculus, read-out: ID50 (the source's name)
[2] = Ability to inhibit the proliferation or tumor cell growth by 50% of the human T-cell lymphoblast (Molt/4F) cells was determined; type: functional; settings: read-out: ID50 (the source's name)
Thymidylate synthase [3] = target: T1, Thymidylate synthase (Lactobacillus casei, UniProt P00469); experiment: Ability to inhibit the thymidylate synthase from Lactobacillus casei was determined and expressed as inhibition constant(Ki); set-up: species or system Lacticaseibacillus casei
T1 sequence (P00469 whole entry): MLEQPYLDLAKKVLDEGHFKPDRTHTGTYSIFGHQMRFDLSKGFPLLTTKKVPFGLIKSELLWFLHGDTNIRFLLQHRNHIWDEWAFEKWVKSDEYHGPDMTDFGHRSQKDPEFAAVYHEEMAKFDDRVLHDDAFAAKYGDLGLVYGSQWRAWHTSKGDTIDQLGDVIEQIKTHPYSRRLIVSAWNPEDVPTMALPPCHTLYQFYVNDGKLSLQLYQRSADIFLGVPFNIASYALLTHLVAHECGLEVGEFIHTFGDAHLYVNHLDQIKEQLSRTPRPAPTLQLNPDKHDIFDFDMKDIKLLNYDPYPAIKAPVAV

Thymidylate synthase [4] = target: Thymidylate synthase (Mus musculus, UniProt P07607); experiment: Ability to inhibit the thymidylate synthase from murine leukemia L1210 cells was determined and expressed as inhibition constant(Ki); type: cell-based
Thymidylate synthase (Mus musculus, UniProt P07607), sequence (P07607 whole entry): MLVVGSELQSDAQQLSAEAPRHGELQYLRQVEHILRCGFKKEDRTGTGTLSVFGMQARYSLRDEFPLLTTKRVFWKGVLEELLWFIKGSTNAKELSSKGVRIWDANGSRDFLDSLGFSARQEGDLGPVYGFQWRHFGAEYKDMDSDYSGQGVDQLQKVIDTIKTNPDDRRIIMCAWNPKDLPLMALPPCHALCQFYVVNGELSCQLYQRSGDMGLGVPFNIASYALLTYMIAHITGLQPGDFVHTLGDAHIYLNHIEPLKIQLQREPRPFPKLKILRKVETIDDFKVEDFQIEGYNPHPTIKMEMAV

Thymidylate synthase [5] = target: T1, Thymidylate synthase; experiment: Ability to inhibit the thymidylate synthase from Lactobacillus casei was determined and expressed as inhibition constant (Ki); set-up: species or system Lacticaseibacillus casei
Raji [6] = experiment: Inhibition of human B-cell lymphoblast Raji cell proliferation; Value ranges from (10-55.6); type: functional; settings: read-out: ID50 (the source's name)
Oryctolagus cuniculus [7] = species on record: Oryctolagus cuniculus; experiment: Minimal inhibitory concentration required to cause a microscopically detectable alteration of normal cell morphology of rabbit kidney cell culture; type: functional
Oryctolagus cuniculus [8] = species on record: Oryctolagus cuniculus; experiment: Minimal inhibitory concentration against HSV-2 (G)-induced cytopathogenicity by 50% in rabbit kidney cell cultures; type: functional
Oryctolagus cuniculus [9] = species on record: Oryctolagus cuniculus; experiment: Minimal inhibitory concentration against HSV-2 (Lyons)-induced cytopathogenicity by 50% in rabbit kidney cell cultures; type: functional
Oryctolagus cuniculus [10] = species on record: Oryctolagus cuniculus; experiment: Minimal inhibitory concentration against vaccinia virus-induced cytopathogenicity by 50% in rabbit kidney cell cultures; type: functional
Oryctolagus cuniculus [11] = species on record: Oryctolagus cuniculus; experiment: Minimal inhibitory concentration against vesicular stomatitis virus-induced cytopathogenicity by 50% in rabbit kidney cell cultures; type: functional
Oryctolagus cuniculus [12] = species on record: Oryctolagus cuniculus; experiment: Minimal inhibitory concentration against HSV-1 (F)-induced cytopathogenicity by 50% in rabbit kidney cell cultures; type: functional
Oryctolagus cuniculus [13] = species on record: Oryctolagus cuniculus; experiment: Minimal inhibitory concentration against HSV-1 (KOS)-induced cytopathogenicity by 50% in rabbit kidney cell cultures; type: functional
Oryctolagus cuniculus [14] = species on record: Oryctolagus cuniculus; experiment: Minimal inhibitory concentration against HSV-1 (McIntyre)-induced cytopathogenicity by 50% in rabbit kidney cell cultures; type: functional
Oryctolagus cuniculus [15] = species on record: Oryctolagus cuniculus; experiment: Minimal inhibitory concentration against HSV-2 (196)-induced cytopathogenicity by 50% in rabbit kidney cell cultures; type: functional
Oryctolagus cuniculus [16] = species on record: Oryctolagus cuniculus; experiment: Minimal inhibitory concentration required to cause a microscopically detectable alteration of normal cell morphology of rabbit kidney cell cultures; type: functional

Structure (SMILES)	IC50 (Raji [1])	IC50 (L1210)	IC50 [2]	Ki (Thymidylate synthase [3])	MIC (Oryctolagus cuniculus [8])	MIC (Oryctolagus cuniculus [9])	MIC (Oryctolagus cuniculus [10])	MIC (Oryctolagus cuniculus [11])	MIC (Oryctolagus cuniculus [12])	MIC (Oryctolagus cuniculus [13])	MIC (Oryctolagus cuniculus [14])	MIC (Oryctolagus cuniculus [15])	also measured
COc1c(C)c(C)c(OC)c(-c2cn([C@H]3C[C@H](O)[C@@H](CO)O3)c(=O)[nH]c2=O)c1C	> 100 µg/mL	> 100 µg/mL	> 100 µg/mL	–	–	–	–	–	–	–	–	–	–
CC1=C(C)C(=O)C(c2cn([C@H]3C[C@H](O)[C@@H](COP(=O)(O)O)O3)c(=O)[nH]c2=O)=C(C)C1=O	–	–	–	1.3 µM	–	–	–	–	–	–	–	–	Ki (Thymidylate synthase [4]): 5.1 µM
COc1cc(-c2cn([C@H]3C[C@H](O)[C@@H](CO)O3)c(=O)[nH]c2=O)c(OC)c(C)c1C	> 100 µg/mL	> 100 µg/mL	> 100 µg/mL	–	–	–	–	–	–	–	–	–	–
O=C1C=CC(=O)C(c2cn([C@H]3C[C@H](O)[C@@H](COP(=O)(O)O)O3)c(=O)[nH]c2=O)=C1	–	–	–	2 µM	–	–	–	–	–	–	–	–	–
COc1c(C)c(-c2cn([C@H]3C[C@H](O)[C@@H](COP(=O)(O)O)O3)c(=O)[nH]c2=O)c(OC)c2ccccc12	–	–	–	2.4 µM	–	–	–	–	–	–	–	–	–
COc1cc(-c2cn([C@H]3C[C@H](O)[C@@H](COP(=O)(O)O)O3)c(=O)[nH]c2=O)c(OC)c(C)c1C	–	–	–	–	–	–	–	–	–	–	–	–	Ki (Thymidylate synthase [5]): 3.6 µM
COc1c(C)c(-c2cn([C@H]3C[C@H](O)[C@@H](CO)O3)c(=O)[nH]c2=O)c(OC)c2ccccc12	–	> 100 µg/mL	> 100 µg/mL	–	–	–	–	–	–	–	–	–	IC50 (Raji [6]): 55.6 µg/mL (≈ 130 µM)
O=c1[nH]c(=O)n([C@H]2C[C@H](O)[C@@H](CO)O2)cc1I [IDOXURIDINE]	–	–	–	–	0.7 µg/mL (≈ 1.98 µM)	0.7 µg/mL (≈ 1.98 µM)	0.7 µg/mL (≈ 1.98 µM)	> 400 µg/mL	0.7 µg/mL (≈ 1.98 µM)	0.2 µg/mL (≈ 0.565 µM)	0.7 µg/mL (≈ 1.98 µM)	1 µg/mL (≈ 2.82 µM)	MIC (Oryctolagus cuniculus [7]): > 400 µg/mL
CC1=C(c2cn([C@H]3C[C@H](O)[C@@H](CO)O3)c(=O)[nH]c2=O)C(=O)c2ccccc2C1=O	33.5 µg/mL (≈ 84.1 µM)	27.4 µg/mL (≈ 68.8 µM)	30.9 µg/mL (≈ 77.6 µM)	–	> 10 µg/mL	> 10 µg/mL	> 10 µg/mL	> 10 µg/mL	> 10 µg/mL	> 10 µg/mL	> 10 µg/mL	> 10 µg/mL	MIC (Oryctolagus cuniculus [16]): 40 µg/mL (≈ 100 µM)
CC1=C(c2cn([C@H]3C[C@H](O)[C@@H](COP(=O)(O)O)O3)c(=O)[nH]c2=O)C(=O)c2ccccc2C1=O	–	–	–	0.61 µM	–	–	–	–	–	–	–	–	Ki (Thymidylate synthase [4]): 1.9 µM
O=c1[nH]c(=O)n([C@H]2C[C@H](O)[C@@H](CO)O2)cc1Br [BROXURIDINE]	–	–	–	–	2 µg/mL (≈ 6.51 µM)	20 µg/mL (≈ 65.1 µM)	7 µg/mL (≈ 22.8 µM)	> 400 µg/mL	0.07 µg/mL (≈ 0.228 µM)	0.02 µg/mL (≈ 0.0651 µM)	0.02 µg/mL (≈ 0.0651 µM)	10 µg/mL (≈ 32.6 µM)	MIC (Oryctolagus cuniculus [16]): > 400 µg/mL
O=c1[nH]c(=O)n([C@H]2C[C@H](O)[C@@H](CO)O2)cc1[N+](=O)[O-]	–	0.003 µg/mL (≈ 0.011 µM)	–	–	–	–	–	–	–	–	–	–	–
CC1=C(C)C(=O)C(c2cn([C@H]3C[C@H](O)[C@@H](CO)O3)c(=O)[nH]c2=O)=C(C)C1=O	51.1 µg/mL (≈ 136 µM)	65.6 µg/mL (≈ 174 µM)	29.7 µg/mL (≈ 78.9 µM)	–	> 200 µg/mL	> 200 µg/mL	> 200 µg/mL	> 100 µg/mL	> 200 µg/mL	> 200 µg/mL	> 200 µg/mL	> 200 µg/mL	MIC (Oryctolagus cuniculus [16]): > 200 µg/mL
O=C1C=CC(=O)C(c2cn([C@H]3C[C@H](O)[C@@H](CO)O3)c(=O)[nH]c2=O)=C1	> 100 µg/mL	35.7 µg/mL (≈ 107 µM)	> 100 µg/mL	–	70 µg/mL (≈ 209 µM)	70 µg/mL (≈ 209 µM)	70 µg/mL (≈ 209 µM)	> 200 µg/mL	20 µg/mL (≈ 59.8 µM)	20 µg/mL (≈ 59.8 µM)	150 µg/mL (≈ 449 µM)	70 µg/mL (≈ 209 µM)	–
CC1=C(C)C(=O)C(c2cn([C@H]3C[C@H](O)[C@@H](COP(=O)(O)O)O3)c(=O)[nH]c2=O)=CC1=O	–	–	–	0.59 µM	–	–	–	–	–	–	–	–	Ki (Thymidylate synthase [4]): 6.1 µM
CC1=C(C)C(=O)C(c2cn([C@H]3C[C@H](O)[C@@H](CO)O3)c(=O)[nH]c2=O)=CC1=O	> 100 µg/mL	40.5 µg/mL (≈ 112 µM)	66.8 µg/mL (≈ 184 µM)	–	> 100 µg/mL	70 µg/mL (≈ 193 µM)	> 100 µg/mL	> 100 µg/mL	> 100 µg/mL	150 µg/mL (≈ 414 µM)	70 µg/mL (≈ 193 µM)	70 µg/mL (≈ 193 µM)	MIC (Oryctolagus cuniculus [16]): 200 µg/mL (≈ 552 µM)
COc1c(C)c(C)c(OC)c(-c2cn([C@H]3C[C@H](O)[C@@H](COP(=O)(O)O)O3)c(=O)[nH]c2=O)c1C	–	–	–	1.4 µM	–	–	–	–	–	–	–	–	–
